Test results taken from US10220029B2, “Pharmaceutical composition comprising glutarimide derivatives and use thereof in the treatment of eosinophilic diseases” (OBSCHESTVO S ORGANICHENNOI OTVETSTVENNOSTIYU …, priority 2013, dated 2019).
Marks after values point to notes of the source that are not given here.

Experiments:
[1] = system: model of sephadex-induced eosinophilic lung inflammation in rats; assay: Content of cell elements in BAL in the model of sephadex-induced eosinophilic lung inflammation in rats; type: in vivo, male Wistar rats; details: Table 8; 0.5 mg/kg by inhalation, four times (reference preparation); BAL 48 hours after sephadex; n = 10
Method: The model of sephadex-induced eosinophilic lung inflammation in rats was realized by a standard method [Evaldsson C, Rydén I, Uppugunduri S. Isomaltitol exacerbates neutrophilia but reduces eosinophilia: new insights into the sephadex model of lung inflammation//Int Arch Allergy Immunol. 2011; 154(4):286-94]. Sephadex G-200 (Pharmacia, Sweden) was administered one time by inhalation to male Wistar rats at a dose of 5 mg/kg. The studied compounds were administered to the animals by the intragastric route four times: 24 hours and 1 hour before and 24 hours and 45 hours after administration of sephadex. The reference preparation, budesonide, was administered according to the same scheme, by inhalation at a dose of 0.5 mg/kg. Bronchoalveolar lavage was taken 48 hours after the inhalation of sephadex, and the total lymphocyte count and leukocyte formula in the lavage were determined. The number of rats in a group was 7 to 10.

[2] = system: model of bronchial asthma in guinea pigs; assay: Content of cell elements in the blood in the model of bronchial asthma in guinea pigs; type: in vivo, guinea pig; details: Table 6 Experiment No. 2, 6 times, n = 8
Method: (§1) Bronchial asthma in guinea pigs was induced by a standard method [Ricciardolo F L, Nijkamp F, De Rose V, Folkerts G. The guinea pig as an animal model for asthma// Current Drug Targets. 2008 June; 9(6):452-65]. The animals were immunized by one parenteral administration of 0.5 mL of a solution comprising 100 μg/mL ovalbumin (Sigma) and 100 mg/mL aluminium hydroxide. Intact animals received a physiological saline solution in an amount of 0.5 mL.
(§2) On days 29, 30 and 31, hyperactivity of the respiratory airways was provoked by inhalation administration of ovalbumin in ascending concentrations of 0.1, 0.3, and 0.5 mg/mL on days 1, 2, and 3 of the provocation, respectively. The inhalation lasted 5 minutes or until asphyxia symptoms became apparent (fall to one side). On day 32, the animals received a challenging dose of ovalbumin (1 mg/mL) for 5 minutes, while assessing a bronchospastic reaction.
(§3) The studied compounds were administered to the animals once daily every day for 6 or 10 days; the administration was terminated two days before the administration of the challenging dose of antigen.
(§4) The bronchoalveolar lavage (BAL) and cardiac cavity blood were derived from the animals 24 hours after administration of the challenging dose. The BAL was collected under anesthesia by lavaging the lungs with 5 mL of a physiological saline solution heated to 37° C. through the trachea, using a syringe dosing device.
The blood was analyzed with a hemocytometer to determine leykoformula.
(§5) The study comprised 3 experiments, wherein the first one was directed to the evaluation of the effect of claimed compounds 1-6 on the cell composition of the BAL, the second and the third experiments were aimed at evaluating the effect of compounds 1 and 2 on the cell composition of the BAL, the cell composition of the blood, and on the bronchospasm severity.

[3] = system: model of bronchial asthma in guinea pigs; assay: Severity of bronchospasm in the model of bronchial asthma in guinea pigs; type: in vivo, guinea pig; details: Experiment No. 2, 6 times, n = 8
Method: as §1, §2, §3
The bronchospastic reaction was assessed by a change in the rate and depth of the respiratory movements and by the asphyxia symptom such as fall to one side. Spirogram was registered by laboratory experimental equipment (ADInstruments, Australia), using a base recording station (PowerLab 8sp.) and software LabCart. The registration was made using airflow sensors for laboratory animals and a spirograph with an integrated amplifier (ADInstruments).
as §5

[4] = system: model of bronchial asthma in guinea pigs; assay: Content of cell elements in BAL in the model of bronchial asthma in guinea pigs; type: in vivo, guinea pig
Method: as §1, §2, §3, §4
The absolute number of cell elements in 1 μL of the lavage (cytosis) was counted in the bronchoalveolar lavage, using the Goryaev camera. Then, the BAL was centrifuged at 200 g for 10 minutes. The residue was used to prepare swabs that were fixed in methanol and stained according to Romanovsky-Giemsa to count endopulmonary cytogram.
as §5

[5] = Table 4, 14 mg/kg, 10 times of administration, n = 9
[6] = Table 5 Experiment No. 2, 0.14 mg/kg, 6 times, n = 8
[7] = Table 5 Experiment No. 2, 1.4 mg/kg, 6 times, n = 8
[8] = Table 5 Experiment No. 2, 14 mg/kg, 6 times, n = 8

## CCCC1O[C@@H]2C[C@H]3[C@@H]4CCC5=CC(=O)C=C[C@]5(C)[C@H]4[C@@H](O)C[C@]3(C)[C@]2(C(=O)CO)O1 (some centres unmarked) [Budesonide, budesonide, reference compound]
[1]
  Eosinophils, content of cell elements in 1 μL of BAL: 204 ± 84*& in 1 μL of BAL
  Leukocytes, content of cell elements in 1 μL of BAL: 1805 ± 318*& in 1 μL of BAL
  Lymphocytes, content of cell elements in 1 μL of BAL: 37 ± 10& in 1 μL of BAL
  Macrophages, content of cell elements in 1 μL of BAL: 1230 ± 205 in 1 μL of BAL
  Neutrophils, content of cell elements in 1 μL of BAL: 334 ± 119 in 1 μL of BAL

## O=C1CCCC(=O)N1CCc1ncc[nH]1 [Compound 2]
[2]; 0.14 mg/kg
  Banded neutrophils in the blood: 0.18 ± 0.04 10^9/L
  Basophils in the blood: 0 ± 0 10^9/L
  Cytosis in the blood: 7.80 ± 0.77*& 10^9/L
  Eosinophils in the blood: 0.09 ± 0.03& 10^9/L
  Lymphocytes in the blood: 3.95 ± 0.54& 10^9/L
  Monocytes in the blood: 0.18 ± 0.06 10^9/L
  Segmented neutrophils in the blood: 3.41 ± 0.41*& 10^9/L
[2]; 1.4 mg/kg
  Banded neutrophils in the blood: 0.21 ± 0.03 10^9/L
  Basophils in the blood: 0 ± 0 10^9/L
  Cytosis in the blood: 7.70 ± 0.40*& 10^9/L
  Eosinophils in the blood: 0.1 ± 0.03& 10^9/L
  Lymphocytes in the blood: 3.68 ± 0.25& 10^9/L
  Monocytes in the blood: 0.18 ± 0.06 10^9/L
  Segmented neutrophils in the blood: 3.53 ± 0.37*& 10^9/L
[2]; 14 mg/kg
  Banded neutrophils in the blood: 0.17 ± 0.04 10^9/L
  Basophils in the blood: 0 ± 0 10^9/L
  Cytosis in the blood: 6.93 ± 0.77& 10^9/L
  Eosinophils in the blood: 0.1 ± 0.04& 10^9/L
  Lymphocytes in the blood: 3.51 ± 0.41& 10^9/L
  Monocytes in the blood: 0.24 ± 0.08 10^9/L
  Segmented neutrophils in the blood: 2.9 ± 0.38& 10^9/L
[3]; 0.14 mg/kg
  The number of animals with moderate bronchospasm (without acute phase, with subacute phase, with breath management): 1
  The number of animals with moderate bronchospasm (without acute phase, with subacute phase, without breath management): 1
  The number of animals with severe bronchospasm (in acute and subacute phase): 2
  The number of animals without bronchospasm: 4
[3]; 1.4 mg/kg
  The number of animals with moderate bronchospasm (without acute phase, with subacute phase, with breath management): 0
  The number of animals with moderate bronchospasm (without acute phase, with subacute phase, without breath management): 3
  The number of animals with severe bronchospasm (in acute and subacute phase): 1
  The number of animals without bronchospasm: 4
[3]; 14 mg/kg
  The number of animals with moderate bronchospasm (without acute phase, with subacute phase, with breath management): 1
  The number of animals with moderate bronchospasm (without acute phase, with subacute phase, without breath management): 0
  The number of animals with severe bronchospasm (in acute and subacute phase): 2
  The number of animals without bronchospasm: 5
[4]; [5]
  Eosinophils in BAL: 1.30 ± 0.29*& 10^9/L
  Lymphocytes in BAL: 1.53 ± 0.50* 10^9/L
  Monocytes in BAL: 0.60 ± 0.14* 10^9/L
  Neutrophils in BAL: 1.05 ± 0.16*& 10^9/L
[4]; [6]
  Cytosis in BAL: 0.55 ± 0.09*& 10^9/L
  Eosinophils in BAL: 0.20 ± 0.03*& 10^9/L
  Lymphocytes in BAL: 0.07 ± 0.02& 10^9/L
  Monocytes in BAL: 0.24 ± 0.06*& 10^9/L
  Neutrophils in BAL: 0.03 ± 0.008*& 10^9/L
[4]; [7]
  Cytosis in BAL: 0.63 ± 0.09*& 10^9/L
  Eosinophils in BAL: 0.18 ± 0.02*& 10^9/L
  Lymphocytes in BAL: 0.06 ± 0.01& 10^9/L
  Monocytes in BAL: 0.29 ± 0.07* 10^9/L
  Neutrophils in BAL: 0.09 ± 0.002 10^9/L
[4]; [8]
  Cytosis in BAL: 0.56 ± 0.008*& 10^9/L
  Eosinophils in BAL: 0.21 ± 0.06*& 10^9/L
  Lymphocytes in BAL: 0.07 ± 0.009& 10^9/L
  Monocytes in BAL: 0.22 ± 0.05*& 10^9/L
  Neutrophils in BAL: 0.07 ± 0.002 10^9/L

## CC1(C)CC(=O)N(CCc2cnc[nH]2)C(=O)C1 [Compound 3]
[4]; [5]
  Eosinophils in BAL: 0.93 ± 0.31*& 10^9/L
  Lymphocytes in BAL: 0.72 ± 0.08* 10^9/L
  Monocytes in BAL: 0.71 ± 0.18& 10^9/L
  Neutrophils in BAL: 0.36 ± 0.08 10^9/L

## O=C1CCCC(=O)N1CCc1nc2ccccc2s1 [Compound 4, 1-(2-(1,3-benzothiazol-2-yl)ethyl)piperidine-2,6-dione]
[4]; [5]
  Eosinophils in BAL: 1.25 ± 0.34*& 10^9/L
  Lymphocytes in BAL: 0.81 ± 0.11* 10^9/L
  Monocytes in BAL: 0.85 ± 0.19& 10^9/L
  Neutrophils in BAL: 0.43 ± 0.12 10^9/L
